Consider one compound from ChEMBL document CHEMBL5715956, “Selective Targeting of Bromodomains of the Bromodomain-PHD Fingers Family Impairs Osteoclast Differentiation” (ACS Chem Biol, 2017).

Each structure is given as a SMILES string.

The ΔTm is the change in melting temperature against a reference sample.

The target of data set [1] is T1, Bromodomain-containing protein 1 (Homo sapiens) (UniProt O95696).
T1 sequence (whole entry): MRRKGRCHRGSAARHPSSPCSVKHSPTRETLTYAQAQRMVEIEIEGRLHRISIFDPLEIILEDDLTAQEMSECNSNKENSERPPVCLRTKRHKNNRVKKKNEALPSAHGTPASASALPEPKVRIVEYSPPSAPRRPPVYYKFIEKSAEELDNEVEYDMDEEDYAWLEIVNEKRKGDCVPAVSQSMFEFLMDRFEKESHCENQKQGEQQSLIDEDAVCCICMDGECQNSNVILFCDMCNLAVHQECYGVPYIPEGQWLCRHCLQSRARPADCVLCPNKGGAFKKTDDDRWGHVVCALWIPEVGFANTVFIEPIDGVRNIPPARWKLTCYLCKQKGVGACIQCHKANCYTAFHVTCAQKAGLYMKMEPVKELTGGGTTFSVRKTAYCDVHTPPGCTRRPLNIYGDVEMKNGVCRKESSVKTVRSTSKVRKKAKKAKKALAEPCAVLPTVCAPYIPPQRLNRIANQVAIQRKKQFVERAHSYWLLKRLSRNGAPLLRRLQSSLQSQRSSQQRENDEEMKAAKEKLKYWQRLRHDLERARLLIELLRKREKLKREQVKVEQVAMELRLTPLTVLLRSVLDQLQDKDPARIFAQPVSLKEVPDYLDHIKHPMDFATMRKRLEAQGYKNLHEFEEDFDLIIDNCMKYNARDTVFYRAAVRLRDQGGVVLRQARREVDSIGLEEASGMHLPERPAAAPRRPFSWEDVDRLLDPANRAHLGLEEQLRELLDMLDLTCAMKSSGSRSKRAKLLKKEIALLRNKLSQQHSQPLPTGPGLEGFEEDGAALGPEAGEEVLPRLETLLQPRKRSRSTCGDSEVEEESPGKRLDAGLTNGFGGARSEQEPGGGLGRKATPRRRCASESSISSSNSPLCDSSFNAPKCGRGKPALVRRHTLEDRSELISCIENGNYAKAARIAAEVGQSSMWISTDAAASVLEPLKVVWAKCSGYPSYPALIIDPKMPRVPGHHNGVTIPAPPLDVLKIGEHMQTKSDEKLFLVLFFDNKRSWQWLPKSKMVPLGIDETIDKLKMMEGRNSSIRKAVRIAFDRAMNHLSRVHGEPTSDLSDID
The data set is described as follows: Binding affinity to BRPF2 (unknown origin) assessed as change in enthalpy at 12 uM by Isothermal titration calorimetry.

Data set [2] concerns the target T2, Peregrin (Homo sapiens) (UniProt P55201).
T2 sequence (whole entry): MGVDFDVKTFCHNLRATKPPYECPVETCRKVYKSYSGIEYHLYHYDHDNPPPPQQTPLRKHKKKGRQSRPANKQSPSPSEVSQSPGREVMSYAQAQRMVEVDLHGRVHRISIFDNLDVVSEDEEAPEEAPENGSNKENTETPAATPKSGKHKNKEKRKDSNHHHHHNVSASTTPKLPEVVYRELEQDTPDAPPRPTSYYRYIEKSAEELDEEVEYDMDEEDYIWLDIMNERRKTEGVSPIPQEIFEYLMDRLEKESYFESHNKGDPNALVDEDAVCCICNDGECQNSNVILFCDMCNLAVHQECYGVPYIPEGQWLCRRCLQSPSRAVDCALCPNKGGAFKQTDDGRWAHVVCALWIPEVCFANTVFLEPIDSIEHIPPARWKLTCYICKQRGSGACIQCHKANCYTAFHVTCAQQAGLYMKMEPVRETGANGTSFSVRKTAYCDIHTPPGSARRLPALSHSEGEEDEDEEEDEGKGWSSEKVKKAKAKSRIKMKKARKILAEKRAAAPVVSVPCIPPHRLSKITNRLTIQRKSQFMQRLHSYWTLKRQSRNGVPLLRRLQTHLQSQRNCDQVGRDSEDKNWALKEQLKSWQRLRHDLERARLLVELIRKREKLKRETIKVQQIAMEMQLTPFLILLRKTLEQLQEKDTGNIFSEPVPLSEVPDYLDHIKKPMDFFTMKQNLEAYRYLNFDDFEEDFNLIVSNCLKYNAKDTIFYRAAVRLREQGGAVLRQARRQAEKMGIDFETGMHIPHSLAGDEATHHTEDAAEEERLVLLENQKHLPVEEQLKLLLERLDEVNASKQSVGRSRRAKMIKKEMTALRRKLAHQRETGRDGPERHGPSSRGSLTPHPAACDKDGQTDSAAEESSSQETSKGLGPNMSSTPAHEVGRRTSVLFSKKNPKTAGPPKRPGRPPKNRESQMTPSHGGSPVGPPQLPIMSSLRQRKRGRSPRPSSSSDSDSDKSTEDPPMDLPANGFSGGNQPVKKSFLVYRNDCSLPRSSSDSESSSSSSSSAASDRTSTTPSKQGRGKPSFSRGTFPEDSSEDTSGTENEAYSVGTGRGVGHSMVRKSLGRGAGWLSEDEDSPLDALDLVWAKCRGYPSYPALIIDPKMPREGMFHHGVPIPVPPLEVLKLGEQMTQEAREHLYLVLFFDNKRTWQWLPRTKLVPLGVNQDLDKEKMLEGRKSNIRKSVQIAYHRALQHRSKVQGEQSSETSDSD
Nature of the data set: Binding affinity to […] (unknown origin) assessed as change in entropy TdeltaS at 17 uM by Isothermal titration calorimetry. (Isothermal titration calorimetry measures the heat released or taken up as one component is titrated into another.)

For data set [3], the target named is Bromodomain-containing protein 4 (Homo sapiens) (UniProt O60885). The data set is described as follows: Binding affinity to BRD4 BD1 (unknown origin) assessed as change in entropy TdeltaS at 14 uM by Isothermal titration calorimetry.
The target in data set [4] is KV channel (voltage-gated potassium channel family) (Homo sapiens, UniProt O43525+O43526+O95259+P16389+P17658+P22001+P22459+P22460+P48547+P51787+P56696+Q03721+Q09470+Q12809+Q14003+Q14721+Q16322+Q6PIU1+Q8NCM2+Q8TAE7+Q8TDN1+Q8TDN2+Q92953+Q96KK3+Q96L42+Q96PR1+Q96RP8+Q9BQ31+Q9H252+Q9H3M0+Q9NR82+Q9NS40+Q9NSA2+Q9NZV8+Q9UIX4+Q9UJ96+Q9UK17+Q9ULD8+Q9ULS6+Q9UQ05). Nature of the data set: Binding affinity to KV channel (unknown origin) assessed as specific binding at 10 uM relative to control. Format: protein assay. To be noted: read-out: Activity.

Data set [5] addresses Bromodomain testis-specific protein (Homo sapiens) (UniProt Q58F21). To be noted: dose 10.0 µM.
The species named for data set [6] is Homo sapiens. The note with it: dose 10.0 µM.
Data set [7] deals with Histone acetyltransferase KAT2A (Homo sapiens) (UniProt Q92830). To be noted: dose 10.0 µM.
Chain of Histone acetyltransferase KAT2A (Homo sapiens) (Q92830 2-837 limits assumed): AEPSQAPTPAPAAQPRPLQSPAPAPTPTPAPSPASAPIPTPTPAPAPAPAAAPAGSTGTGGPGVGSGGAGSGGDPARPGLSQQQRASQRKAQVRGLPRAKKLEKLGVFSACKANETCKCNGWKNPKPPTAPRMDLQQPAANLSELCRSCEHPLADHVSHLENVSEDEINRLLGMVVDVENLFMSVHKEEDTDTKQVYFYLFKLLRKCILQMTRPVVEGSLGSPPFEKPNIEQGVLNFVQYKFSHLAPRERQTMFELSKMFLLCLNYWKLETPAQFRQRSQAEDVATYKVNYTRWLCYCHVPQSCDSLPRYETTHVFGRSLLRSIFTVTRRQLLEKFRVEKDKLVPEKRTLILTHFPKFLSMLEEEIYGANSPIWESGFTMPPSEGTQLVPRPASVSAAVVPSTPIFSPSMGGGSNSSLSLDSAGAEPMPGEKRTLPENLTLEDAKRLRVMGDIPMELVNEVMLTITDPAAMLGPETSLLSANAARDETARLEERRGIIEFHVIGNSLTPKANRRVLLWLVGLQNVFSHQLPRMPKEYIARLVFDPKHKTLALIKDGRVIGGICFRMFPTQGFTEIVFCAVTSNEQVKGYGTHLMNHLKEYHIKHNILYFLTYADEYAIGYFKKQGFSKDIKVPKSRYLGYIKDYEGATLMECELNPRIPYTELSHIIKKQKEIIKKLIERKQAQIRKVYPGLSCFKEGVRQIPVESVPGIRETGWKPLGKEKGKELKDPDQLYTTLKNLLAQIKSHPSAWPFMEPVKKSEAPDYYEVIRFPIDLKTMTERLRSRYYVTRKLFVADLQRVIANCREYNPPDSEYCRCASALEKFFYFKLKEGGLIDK

With `COc1cc2c(cc1NS(=O)(=O)c1ccc(Br)cc1C)n(C)c(=O)n2C`, the deltaH in data set [1] is -9.5 kcal/mol. Further, the TdeltaS was -3.34 kcal/mol in data set [2] and 0.198 kcal/mol in data set [3]. In data set [4], the activity at 10 µM was 124%. The results for the ΔTm in data set [5], in data set [6] and in data set [7] were 0.4 °C, 3.3 °C and -0.4 °C, respectively.
